Source: patent US20230140298A1, “TOPICAL COMPOSITION COMPRISING RETINOL AND PDRN AND USE OF SAME” (DR. J SKINCLINIC, INC., priority 2021, published 2023)

Columns and labels:
Assay type in all cases: cell-based, human
IL-8 = test: Retinol-induced IL-8 release in HaCaT cells (ELISA); conditions: 10 μM all-trans retinol, 48 hours
Method: (§1) Referring to FIG. 1, immortalized human keratinocytes HaCaT cells were cultured in 96-well plates and treated with 10 μM of all-trans retinol (Sigma-Aldrich, St. Louis, Mo.) and c-PDRN® obtained from (PharmaResearch, Seongnam-si, Gyeonggi-do, Korea) at the indicated concentrations. […] The levels of secreted cytokine were normalized against a standard dose-response curve. c-PDRN is a hydrolyzed DNA fragment mixture extracted from the testes of adult salmon (Oncorhynchus keta, Salmonidae) The inhibitory effects of c-PDRN were evaluated on retinol-induced secretion of MCP-1 or IL-8 in cultured human keratinocytes, HaCaT cells by enzyme-linked immunosorbent assay (ELISA) to study IL-8, MCP-1 signaling pathway. The cultured HaCaT cells were treated with 10 μM all-trans retinol prior to c-PDRN treatment at the indicated concentrations. After incubation for 48 hours, the levels of secreted IL-8 or MCP-1 were measured and normalized against a standard IL-8 or MCP-1 dose-response curve. Data were shown as the means of three individual experiments with five wells per group. All-trans retinol induced increases in IL-8 and MCP-1 secretion by 8-fold and 1.4-fold, respectively. Efficacy range was c-PDRN 10 ppm ˜100 ppm or 0.001%-0.01%.

MCP-1 = test: Retinol-induced MCP-1 release in HaCaT cells (ELISA); conditions: 10 μM all-trans retinol, 48 hours
Method: as §1

p38 = test: Expression and phosphorylation of p38 in HaCaT cells (Western blot); conditions: 10 μM all-trans retinol, 48 hours, FIG. 3
Method: Referring to FIG. 1, altered signaling pathways in the retinol-treated HaCaT cells were investigated. The HaCaT cells were harvested 48 hours after treatment of retinol and c-PDRN at the indicated concentrations, and expression and phosphorylation levels of inflammation-related signaling mediator, p38 were determined using Western blot. Antibodies against p38 or phosphorylated p38 (p-p38) were purchased from Cell Signaling Technology (Danvers, Mass.). The expression and phosphorylation levels of inflammation-related signaling mediator, p38 were evaluated after treatment with 10 μM all-trans retinol and c-PDRN at the indicated concentrations using Western blot to study p38 signaling pathway.

## CC1=C(/C=C/C(C)=C/C=C/C(C)=C/CO)C(C)(C)CCC1 [All-trans retinol, all-trans retinol]
IL-8
  increase in IL-8 secretion: 8 fold
MCP-1
  increase in MCP-1 secretion: 1.4 fold
p38
  phosphorylation of p38 protein induced: 1.6 fold
